{"source": "patent US20230125429A1", "about": "(priority 2017, published 2023)", "key": {"[1]": {"tested_on": "HepG2-GFP orthotopic xenograft tumor", "conditions": "Triptonide 25 mg/kg by gavage every other day; Sorafenib intraperitoneal; n=10 per cohort"}, "[2]": {"tested_on": "HepG2 cells", "experiment": "Blocking the AC-cAMP-PKA pathway, growth of HepG2 cells", "format": "cell-based, human", "conditions": "Triptonide 1 µM, Vidarabine 10 µM, PKI 2.5 µM, alone or combined"}, "[3]": {"tested_on": "PKA", "experiment": "Measurement of PKA activity in HepG2 cells", "format": "cell-based, human", "conditions": "one-hour treatment in regular medium (Trypsin 50 nM, Triptonide 1 µM); hour 9 and 10 after mimosine"}, "[4]": {"tested_on": "cAMP", "experiment": "Measurement of cAMP levels in HepG2 cells", "format": "cell-based, human", "conditions": "treatment 2 hours after mimosine; Trypsin 50 nM, Triptonide 1 µM; serum-free"}, "[5]": {"tested_on": "ERK phosphorylation", "experiment": "ERK phosphorylation in HepG2 cells (Western blot)", "format": "cell-based, human", "conditions": "serum-starved HepG2; trypsin 50 nM, Triptolide 1 µM, Triptonide 1 µM; 0-40 minutes"}, "[6]": {"tested_on": "mimosine-treated HepG2 cells", "experiment": "One-hour treatment of mimosine-treated HepG2 cells, live cell imaging", "format": "cell-based, human", "conditions": "one-hour treatment"}, "[7]": {"tested_on": "wild-type keratinocytes", "experiment": "Growth of wild-type primary keratinocytes, continuous exposure", "format": "cell-based, mouse", "conditions": "as low as 1.25 nM (lowest examined), continuous exposure", "protocol": "(§1) For the neonatal mouse keratinocyte culture, the dorsal skins of neonatal wild type or Par2 knockout mice were harvested from wild type or Par2 knockout mice, respectively. The skins were incubated overnight at 4° C. in a 0.25% solution of trypsin (Life Technologies, USA) in phosphate-buffered saline (PBS) without calcium and magnesium. The epidermis was then separated from the adjoining dermis, and the dispersed epidermal cells were collected in suspension Eagle’s minimal essential medium (SMEM) (Life Technologies, USA) supplemented with glutamine and 8% calcium free fetal calf serum (FCS) (Life Technologies, USA). The cells were plated onto individual wells of 48 well plates (Corning, USA), which were pre-coated with collagen (Life Technologies, USA), at a density of 70,000 cells/well. The cell cultures were kept for 12 hours at 34° C. in a humidified incubator containing 8% CO2. Low calcium (0.05 mM) S-MEM, containing 8% FCS was then added to initiate the culture. The culture medium was changed every 2 days.\n(§2) For primary hepatocytes, the seeded cells were monitored for up to 48 hours either without any treatment (as a control) or with various types of treatments. For primary keratinocytes, cells in 48-well plates were monitored either without any treatment or with various types of treatment for up to 96 hours. For HepG2, cells 96-well plates were monitored either without any treatment or with various types of treatments for up to 48 hours. The IncuCyte Zoom was set to take a set of images at fixed locations (4 per well for 96-well plates and 16 per well for 48-well plates and 12-well plates) every three hours.\nTo address this question, we took a genetic approach."}, "[8]": {"tested_on": "mimosine treated HepG2 cells", "experiment": "Cell cycle analysis by flow cytometry (PI staining)", "format": "cell-based, human", "conditions": "2 µM, by 24 hours"}, "[9]": {"tested_on": "Par2 knockout keratinocytes", "experiment": "Growth of Par2 knockout primary keratinocytes, continuous exposure", "format": "cell-based, mouse", "conditions": "as low as 1.25 nM (lowest examined)", "protocol": "as §1, with “Low calcium (0.05 mM) S-MEM, containing 8% FCS was then added to initiate the culture. The culture medium was changed every 2 days.” left out\nas §2, with “The IncuCyte Zoom was set to take a set of images at fixed locations (4 per well for 96-well plates and 16 per well for 48-well plates and 12-well plates) every three hours.” left out"}, "[10]": {"tested_on": "Par2 knockout keratinocytes", "experiment": "Growth of Par2 knockout primary keratinocytes, one hour treatment", "format": "cell-based, mouse", "conditions": "as high as 800 nM, one hour"}, "[11]": {"tested_on": "wild-type keratinocytes", "experiment": "Growth of wild-type primary keratinocytes, short-term treatment", "format": "cell-based, mouse", "conditions": "as high as 800 nM, one hour"}}, "data": [{"compound": "CNC(=O)c1cc(Oc2ccc(NC(=O)Nc3ccc(Cl)c(C(F)(F)F)c3)cc2)ccn1", "note": "[Sorafenib, reference compound]", "values": [{"measurement": "tumor specific (GFP) signals", "setting": "[1]", "value": "lower intensities of the tumor specific signals at all time points"}]}, {"compound": "Nc1ncnc2c1ncn2[C@@H]1O[C@H](CO)[C@@H](O)[C@@H]1O", "note": "[Vidarabine, reference compound]", "values": [{"measurement": "effect on growth of HepG2 cells", "setting": "[2]", "value": "no significant effects"}]}, {"compound": "Trypsin", "values": [{"measurement": "level of PKA activity around G2/M transition", "setting": "[3]", "value": "reduced significantly"}, {"measurement": "levels of cAMP", "setting": "[4]", "value": "modest and transient elevations"}, {"measurement": "levels of phosphorylated ERK", "setting": "[5]", "value": "two-stage increase"}]}, {"compound": "CC(C)[C@]12O[C@H]1[C@@H]1O[C@]13[C@]1(O[C@H]1C[C@H]1C4=C(CC[C@@]13C)C(=O)OC4)[C@@H]2O", "note": "[Triptolide, reference compound]", "values": [{"measurement": "growth and mitotic catastrophe", "setting": "[6]; 1 µM, regardless of time", "value": "growth inhibitory, but did not cause mitotic catastrophe"}, {"measurement": "growth and chromatin condensation", "setting": "[6]; 2 µM, at 0 and 2 hours after mimosine treatment", "value": "not only growth inhibitory, but also caused chromatin condensation"}, {"measurement": "lethality for wild-type keratinocytes", "setting": "[7]", "value": "complete lethality"}, {"measurement": "sub-G1 (<2N, apoptotic) population", "setting": "[8]", "value": "significant peaks of the sub-G1"}, {"measurement": "lethality for Par2 knockout keratinocytes", "setting": "[9]", "value": "complete lethality"}, {"measurement": "growth inhibitory effect on Par2 knockout keratinocytes", "setting": "[10]", "value": "did not have any significant growth inhibitory effect"}, {"measurement": "levels of phosphorylated ERK", "setting": "[5]", "value": "no significant effects"}, {"measurement": "growth inhibitory effect on wild-type keratinocytes", "setting": "[11]", "value": "did not have any significant growth inhibitory effect"}]}]}
